Experimental data taken from patent publication US11964956B2, “Cannabinergic compounds and uses thereof” (Northeastern University, priority 2012, dated 2024).
Read-outs that look alike come from different tables or passages of the source.

Assays:
hCB2 = molecular target: T1, hCB2 (Homo sapiens, UniProt P34972); assay: hCB2 competition-equilibrium binding with [3H]CP-55,940, HEK293 membranes
T1 construct: expressed in transfected cells; host or cells: HEK293
Experimental: (§1) HEK293 cells expressing hCB1 or hCB2 or mCB2 receptor are used for membrane preparations according to Abadji et al. The resulting pellet is resuspended in 10 mM Tris-chloride, pH 7.4, with 5 mM MgCl2 and 2 mM EDTA (TME), rapidly frozen in liquid nitrogen and stored at −80° C. for no longer than two months. Protein content is assayed by using the Bio-Rad protein assay according to the manufacturer's protocol.
(§2) All the cannabinoids discussed in this invention are tested for their ability to bind to CB 1 and CB2 receptors using membranes from rat brain or HEK293 cells expressing either mCB2 or hCB2, respectively via competition-equilibrium binding using [^3H]CP-55,940. Results are analyzed using nonlinear regression to determine ligand IC50 (Prism by GraphPad Software, Inc.), and Ki values are calculated from the IC50. IC50 and Ki values are determined from at least three independent experiments.
(§3) Some disclosed compounds were tested for CB1 and CB2 receptor binding affinity, which can be represented by a Ki value. The Ki value is the affinity constant and describes the affinity of the compound for the receptor. […] A detailed description of the methods used to test binding affinity of compounds is given in US 2007/0135388 and in Papahatjis, et al., J. Med. Chem. (2007) 4048, the content of each of which is hereby incorporated by reference.

rCB1 [1] = molecular target: T2, rCB1 (Rattus norvegicus, UniProt P20272); assay: rCB1 competition-equilibrium binding with [3H]CP-55,940, rat brain membranes; set-up: Frozen rat brains (CB1 source) are obtained from Pel-Freeze Biologicals; tissue Pel-Freeze Biologicals (Rogers, AK); host or cells: rat brain membranes
T2 sequence (P20272 whole entry): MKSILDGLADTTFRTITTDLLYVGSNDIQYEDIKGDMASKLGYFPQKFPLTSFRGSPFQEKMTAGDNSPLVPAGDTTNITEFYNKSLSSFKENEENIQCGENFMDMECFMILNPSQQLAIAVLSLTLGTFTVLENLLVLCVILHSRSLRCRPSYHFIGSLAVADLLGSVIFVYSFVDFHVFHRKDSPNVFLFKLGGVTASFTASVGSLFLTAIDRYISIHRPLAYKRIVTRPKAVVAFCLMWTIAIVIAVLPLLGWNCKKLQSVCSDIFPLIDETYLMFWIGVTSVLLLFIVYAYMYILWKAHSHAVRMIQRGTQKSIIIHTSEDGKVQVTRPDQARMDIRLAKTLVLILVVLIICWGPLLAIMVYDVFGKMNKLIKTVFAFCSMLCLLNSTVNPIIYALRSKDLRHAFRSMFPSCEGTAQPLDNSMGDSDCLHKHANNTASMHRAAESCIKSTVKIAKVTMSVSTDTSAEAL
Experimental: Frozen rat brains (CB1 source) are obtained from Pel-Freeze Biologicals (Rogers, AK) and stored at −80° C. until use. Membranes are prepared according to the method described by Dodd et al. and used in our laboratory as reported.
as §2, §3

mCB2 = molecular target: T3, mCB2 (Mus musculus, UniProt P47936); assay: mCB2 competition-equilibrium binding with [3H]CP-55,940, HEK293 membranes
T3 construct: expressed in transfected cells; host or cells: HEK293
T3 sequence (P47936 whole entry): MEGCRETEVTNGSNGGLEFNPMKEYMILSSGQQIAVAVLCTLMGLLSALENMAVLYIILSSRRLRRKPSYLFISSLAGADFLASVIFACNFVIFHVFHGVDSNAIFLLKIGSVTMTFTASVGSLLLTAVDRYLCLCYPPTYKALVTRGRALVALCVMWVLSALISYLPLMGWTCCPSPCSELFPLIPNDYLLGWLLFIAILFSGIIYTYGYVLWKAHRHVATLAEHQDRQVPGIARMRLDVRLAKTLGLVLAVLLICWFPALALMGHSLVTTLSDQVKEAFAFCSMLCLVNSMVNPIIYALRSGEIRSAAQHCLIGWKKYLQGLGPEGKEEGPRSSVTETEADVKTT
Experimental: as §1, §2, §3

rCB1 [2] = molecular target: T2, rCB1; assay: cAMP assay, rCB1; format: cell-based
Experimental: Functional characterization of some of the disclosed compounds was performed by using the cyclic adenosine monophosphate (cAMP) assay. The functional potency of the compound in the cAMP assay is represented by the EC50 value. The lower the EC50 value, the higher the functional potency. A detailed description of the cyclic adenosine monophosphate (cAMP) assay is given in Nikas et al. J. Med. Chem. (2010) 6996, the content of which is incorporated herein by reference. Table 10 lists the EC50 values of certain compounds of Formula (Je) in the cAMP assay.

T1 sequence (P34972 whole entry): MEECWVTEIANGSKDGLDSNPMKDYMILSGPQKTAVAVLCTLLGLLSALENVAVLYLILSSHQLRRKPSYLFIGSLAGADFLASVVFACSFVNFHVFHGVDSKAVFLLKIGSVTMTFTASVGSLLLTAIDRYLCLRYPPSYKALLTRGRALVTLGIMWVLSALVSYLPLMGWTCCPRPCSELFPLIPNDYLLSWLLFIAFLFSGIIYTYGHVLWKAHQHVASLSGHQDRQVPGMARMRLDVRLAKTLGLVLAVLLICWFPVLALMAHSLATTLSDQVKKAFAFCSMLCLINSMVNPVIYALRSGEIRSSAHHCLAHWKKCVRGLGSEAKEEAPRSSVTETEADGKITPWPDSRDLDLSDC

SMILES	Ki (hCB2)	Ki (rCB1 [1])	Ki (mCB2)	other results
CC(C)(C(=O)OCCCCN=[N+]=[N-])c1cc(O)c2c(c1)OC(C)(C)[C@@H]1CCC(=O)C[C@@H]21 [Compound 37, 4-Azidobutyl 2-((6aR,10aR)-1-hydroxy-6,6-dimethyl-9-oxo-6a,7,8,9,10,10a-hexahydro-6H-benzo[c]chromen-3-yl)-2-methylpropanoate]	1.7 nM	1.7 nM	4.5 nM	
CCCCOC(=O)C(C)(C)c1cc(O)c2c(c1)OC(C)(C)[C@@H]1CC[C@H](O)C[C@@H]21 [Compound 3.8, Butyl-2-((6aR,9S, 10aR)-6a,7,8,9, 10, 10a-hexahydro-1,9-dihydroxy-6,6-dimethyl-6H-benzo[c]chromen-3-yl)-2-methylpropanoate]			0.6 nM	
COC(=O)CCC(C)(C)c1cc(O)c2c(c1)OC(C)(C)[C@@H]1CCC(=O)C[C@@H]21 [Compound 23, Methyl-4-((6aR,10aR)-1-hydroxy-6,6-dimethyl-9-oxo-6a,7,8,9,10,10a-hexahydro-6H-benzo[c]chromen-3-yl)-4-methylpentanoate]	560 ± 64.3 nM	270 ± 34.6 nM	540 ± 46.7 nM	
CC1=CC[C@H]2[C@@H](C1)c1c(O)cc(C(C)(C)C(=O)OCCCCC#N)cc1OC2(C)C [Compound 1.3, 4-cyanobutyl-2-((6aS, 10aR)-6a, 7, 10, 10a-tetrahydro-1-hydroxy-6,6,9-trimethyl-6H-benzo[c]chromen-3-yl)-2-methylpropanoate]				Ki (mCB2; HEK293 cells expressing mCB2, Tables 5-8, read-out: mCB2 Ki): 0.5 nM
CCCOC(=O)C(C)(C)c1cc(O)c2c(c1)OC(C)(C)[C@@H]1CCC(=O)C[C@@H]21 [Compound 34b, Propyl 2-((6aR,10aR)-1-hydroxy-6,6-dimethyl-9-oxo-6a,7,8,9,10,10a-hexahydro-6H-benzo[c]chromen-3-yl)-2-methylpropanoate]	8.3 ± 3.1 nM	4.8 ± 0.8 nM	32 ± 5.2 nM	
CC(C)(C(=O)OCCCN1CCOCC1)c1cc(O)c2c(c1)OC(C)(C)[C@@H]1CCC(=O)C[C@@H]21 [Compound 34g, 3-Morpholinopropyl 2-((6aR,10aR)-1-hydroxy-6,6-dimethyl-9-oxo-6a,7,8,9,10,10a-hexahydro-6H-benzo[c]chromen-3-yl)-2-methylpropanoate]				Ki (hCB2; Table 9, Formula (Ie), read-out: hCB2 (Ki)): 18.2 ± 4.1 nM; Emax (rCB1 [2]; cAMP assay): 78%; EC50 (rCB1 [2]; cAMP assay, read-out: rCB1 EC50): 4.2 nM; Ki (rCB1 [1]; Table 9, Formula (Ie), read-out: rCB1 (Ki)): 17 ± 3.5 nM; Ki (mCB2; Table 9, Formula (Ie), read-out: mCB2 (Ki)): 91.7 ± 20.4 nM
CC(C)(C(=O)OCCCN=C=S)c1cc(O)c2c(c1)OC(C)(C)[C@@H]1CCC(=O)C[C@@H]21 [Compound 10, 3-Isothiocyanatopropyl-2-((6aR,10aR)-1-hydroxy-6,6-dimethyl-9-oxo-6a,7,8,9,10,10a-hexahydro-6H-benzo[c]chromen-3-yl)-2-methylpropanoate]	22 nM	7.9 nM	20 nM	EC50 (rCB1 [2]): 13.8 nM; Emax (rCB1 [2]; cAMP assay): 38%
CC1(C)Oc2cc(C3(C(=O)O)CCCC3)cc(O)c2C2CC(=O)CCC21 (centres unmarked) [AM8139]	> 1000 nM	> 1000 nM	> 1000 nM	
CCCCOC(=O)C1(c2cc(O)c3c(c2)OC(C)(C)C2CCC(=O)CC32)CCCC1 (centres unmarked) [AM8137]		0.4 ± 0.01 nM		
CC(C)(CC(=O)O)c1cc(O)c2c(c1)OC(C)(C)[C@@H]1CCC(=O)C[C@@H]21 [Compound 19, 3-((6aR,10aR)-1-Hydroxy-6,6-dimethyl-9-oxo-6a,7,8,9,10,10a-hexahydro-6H-benzo[c]chromen-3-yl)-3-methylbutanoic acid]	> 1000 nM	> 1000 nM	> 1000 nM	
CCC[C@H](C)OC(=O)C(C)(C)c1cc(O)c2c(c1)OC(C)(C)[C@@H]1CCC(=O)C[C@@H]21 [Compound 34e, (S)-pentan-2-yl 2-((6aR,10aR)-1-hydroxy-6,6-dimethyl-9-oxo-6a,7,8,9,10,10a-hexahydro-6H-benzo[c]chromen-3-yl)-2-methylpropanoate]	12.4 ± 2.5 nM	3 ± 0.5 nM	54 ± 10.6 nM	EC50 (rCB1 [2]): 2.9 nM; Emax (rCB1 [2]; cAMP assay): 58%
CC(C)(C(=O)O)c1cc(O)c2c(c1)OC(C)(C)[C@@H]1CCC(=O)C[C@@H]21 [Compound 32, 2-[(6aR,10aR)-6a,7,8,9,10,10a-Hexahydro-1-hydroxy-6,6-dimethyl-9-oxo-6H-benzo[c]chromen-3-yl]-2-methylpropanoic acid]	> 1000 nM	> 1000 nM	> 1000 nM	
CC(C)(C(=O)OCCCC#N)c1cc(O)c2c(c1)OC(C)(C)[C@@H]1CC=C(CO)C[C@@H]21 [Compound 2.5]	1 nM	1 nM	1 nM	
CC(C)(C(=O)OCCCCN=C=S)c1cc(O)c2c(c1)OC(C)(C)[C@@H]1CCC(=O)C[C@@H]21 [Compound 38, 4-Isothiocyanatobutyl 2-((6aR,10aR)-1-hydroxy-6,6-dimethyl-9-oxo-6a,7,8,9,10,10a-hexahydro-6H-benzo[c]chromen-3-yl)-2-methylpropanoate]	5.2 nM	4.9 nM	21.4 nM	
CC1=CC[C@@H]2[C@@H](C1)c1c(O)cc(C(C)(C)C(=O)OCCCN3CCOCC3)cc1OC2(C)C [Compound 1.25, 3-morpholinopropyl 2-((6aR, 10aR)-1-hydroxy-6,6,9-trimethyl-6a,7, 10, 10a-tetrahydro-6H-benzo[c]chromen-3-yl)-2-methylpropanoate]			104 nM	
CCOC(=O)C(C)(C)c1cc(O)c2c(c1)OC(C)(C)[C@@H]1CCC(=O)C[C@@H]21 [Compound 34a, Ethyl 2-((6aR,10aR)-1-hydroxy-6,6-dimethyl-9-oxo-6a,7,8,9,10,10a-hexahydro-6H-benzo[c]chromen-3-yl)-2-methylpropanoate]	67.5 ± 13.4 nM	36.7 ± 5.6 nM	89.7 ± 18.1 nM	
CCOC(=O)C(C)(C)c1cc(O)c(-c2cccc(C#N)c2)c(O)c1 [Compound 4.2, Ethyl 2-(3′-cyano-2,6-dihydroxybiphenyl-4-yl)-2-methylpropanoate]				Ki (rCB1 [1]; rat brain membranes, Tables 5-8, read-out: rCB1 Ki): 3.66 nM
CC(C)(C(=O)OCCCI)c1cc(O)c2c(c1)OC(C)(C)[C@@H]1CCC(=O)C[C@@H]21 [Compound 7, 3-Iodopropyl-2-((6aR,10aR)-1-hydroxy-6,6-dimethyl-9-oxo-6a,7,8,9,10,10a-hexahydro-6H-benzo[c]chromen-3-yl)-2-methylpropanoate]	5.3 ± 0.9 nM	0.1 ± 0.04 nM	1.2 ± 0.6 nM	
CC(C)(C(=O)OCCCCBr)c1cc(O)c2c(c1)OC(C)(C)[C@@H]1CCC(=O)C[C@@H]21 [Compound 36, 4-Bromobutyl 2-((6aR,10aR)-1-hydroxy-6,6-dimethyl-9-oxo-6a,7,8,9,10,10a-hexahydro-6H-benzo[c]chromen-3-yl)-2-methylpropanoate]		0.002 nM	1.8 nM	
CCCCNC(=O)C(C)(C)c1cc(O)c2c(c1)OC(C)(C)[C@@H]1CCC(=O)C[C@@H]21 [Compound 34i, N-Butyl-2-((6aR,10aR)-1-hydroxy-6,6-dimethyl-9-oxo-6a,7,8,9,10,10a-hexahydro-6H-benzo[c]chromen-3-yl)-2-methylpropanamide]	> 1000 nM	115 ± 21.6 nM	> 1000 nM	
CCCCCCOC(=O)C(C)(C)c1cc(O)c2c(c1)OC(C)(C)[C@@H]1CCC(=O)C[C@@H]21 [Compound 34d, Hexyl 2-((6aR,10aR)-1-hydroxy-6,6-dimethyl-9-oxo-6a,7,8,9,10,10a-hexahydro-6H-benzo[c]chromen-3-yl)-2-methylpropanoate]	15.1 ± 2.2 nM	5.9 ± 1.2 nM	30 ± 7.3 nM	
CCCCCCC(C)(C)c1cc(O)c2c(c1)OC(C)(C)[C@@H]1CCOC(=O)C[C@@H]21 [Compound 3.11, (5aR, 11bR)-11-hydroxy-6,6-dimethyl-9-(2-methyloctan-2-yl)-4,5,5a,6-tetrahydro-1H-oxepino[4,5-c]chromen-2(11bH)-one]			8 nM	
CC(C)(C(=O)OCCCCO[N+](=O)[O-])c1cc(O)c2c(c1)OC(C)(C)[C@@H]1CCC(=O)C[C@@H]21 [Compound 39, 4-(Nitrooxy)butyl 2-((6aR,10aR)-1-hydroxy-6,6-dimethyl-9-oxo-6a,7,8,9,10,10a-hexahydro-6H-benzo[c]chromen-3-yl)-2-methylpropanoate]	2.6 nM	0.2 nM	2.2 nM	
